Laboratory results taken from PubChem BioAssay AID292 (DTP/NCI, 2004).
Several values for one entry are separate records, joined by “and”; a condition that tells them apart may be missing. Identical values can stand only once. Inconclusive results and toxic doses are left out.

Test system: B6C3F1 mice, ip Sarcoma M5076, median survival T/C
Test: NCI In Vivo Anticancer Drug Screen. Data for tumor model Sarcoma M5076 (intraperitoneal) in B6C3F1 mice
Settings: endpoint: median survival time, higher = longer survival
In short: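 Mice carrying the transplanted tumour received compound treatment. Survival was recorded, and each value is the treated-group measurement divided by that of the vehicle-dosed control group.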

[1] = dose: 50.0 mg/kg/injection, schedule: Q04DX004 (ip), vehicle: Klucel (hydroxypropylcellulose) (HPC)
[2] = dose: 100.0 mg/kg/injection, schedule: Q04DX004 (ip), vehicle: Klucel (hydroxypropylcellulose) (HPC)
[3] = dose: 200.0 mg/kg/injection, schedule: Q04DX004 (ip), vehicle: Klucel (hydroxypropylcellulose) (HPC)
[4] = dose: 30.0 mg/kg/injection, schedule: Q04DX004 (ip), vehicle: saline
[5] = dose: 37.5 mg/kg/injection, schedule: Q04DX004 (ip), vehicle: Klucel (hydroxypropylcellulose) (HPC)
[6] = dose: 75.0 mg/kg/injection, schedule: Q04DX004 (ip), vehicle: Klucel (hydroxypropylcellulose) (HPC)
[7] = dose: 150.0 mg/kg/injection, schedule: Q04DX004 (ip), vehicle: Klucel (hydroxypropylcellulose) (HPC)
[8] = dose: 300.0 mg/kg/injection, schedule: Q04DX004 (ip), vehicle: Klucel (hydroxypropylcellulose) (HPC)
[9] = dose: 12.5 mg/kg/injection, schedule: Q04DX004 (ip), vehicle: saline with Tween-80
[10] = dose: 25.0 mg/kg/injection, schedule: Q04DX004 (ip), vehicle: saline with Tween-80
[11] = dose: 50.0 mg/kg/injection, schedule: Q04DX004 (ip), vehicle: saline with Tween-80
[12] = dose: 100.0 mg/kg/injection, schedule: Q04DX004 (ip), vehicle: saline with Tween-80
[13] = dose: 200.0 mg/kg/injection, schedule: Q04DX004 (ip), vehicle: saline with Tween-80
[14] = dose: 12.5 mg/kg/injection, schedule: Q04DX004 (ip), vehicle: Klucel (hydroxypropylcellulose) (HPC)
[15] = dose: 25.0 mg/kg/injection, schedule: Q04DX004 (ip), vehicle: Klucel (hydroxypropylcellulose) (HPC)

O=C1N[C@H]2[C@H](O)[C@H](O)[C@@H](O)[C@H](O)[C@@H]2c2cc3c(c(O)c21)OCO3
T/C (dose: 1.5 mg/kg/injection, schedule: Q04DX004 (ip), vehicle: saline + alcohol): 115 % of control and 121 % of control | T/C (dose: 3.0 mg/kg/injection, schedule: Q01DX009 (ip), vehicle: saline + alcohol): 162 % of control and 163 % of control | T/C (dose: 6.0 mg/kg/injection, schedule: Q01DX009 (ip), vehicle: saline + alcohol): 177 % of control | T/C (dose: 6.25 mg/kg/injection, schedule: Q01DX009 (ip), vehicle: saline + alcohol): 152 % of control

O=C(Nc1ccc(Cl)c(Cl)c1)C1C(=O)C(=O)N(c2ccc(Cl)c(Cl)c2)C1=O (stereo not drawn)
T/C [1]: 91 % of control | T/C [2]: 92 % of control | T/C [3]: 89 % of control

O=NNc1cccnc1
T/C (dose: 12.5 mg/kg/injection, schedule: Q04DX004 (ip), vehicle: water): 99 % of control and 119 % of control | T/C (dose: 25.0 mg/kg/injection, schedule: Q04DX004 (ip), vehicle: water): 110 % of control and 113 % of control | T/C (dose: 50.0 mg/kg/injection, schedule: Q04DX004 (ip), vehicle: water): 97 % of control and 110 % of control | T/C (dose: 100.0 mg/kg/injection, schedule: Q04DX004 (ip), vehicle: water): 124 % of control

NC(C(=O)O)C1=CCCCCC1 (stereo not drawn)
T/C (dose: 16.25 mg/kg/injection, schedule: Q04DX004 (ip), vehicle: Klucel (hydroxypropylcellulose) (HPC)): 100 % of control | T/C (dose: 32.5 mg/kg/injection, schedule: Q04DX004 (ip), vehicle: Klucel (hydroxypropylcellulose) (HPC)): 111 % of control | T/C (dose: 65.0 mg/kg/injection, schedule: Q04DX004 (ip), vehicle: Klucel (hydroxypropylcellulose) (HPC)): 104 % of control | T/C (dose: 130.0 mg/kg/injection, schedule: Q04DX004 (ip), vehicle: Klucel (hydroxypropylcellulose) (HPC)): 95 % of control | T/C (dose: 260.0 mg/kg/injection, schedule: Q04DX004 (ip), vehicle: Klucel (hydroxypropylcellulose) (HPC)): 100 % of control

CN(C)CCCN=c1c2ccccc2n(C)c2[nH]c(=O)n(C)c(=O)c12
T/C (dose: 7.5 mg/kg/injection, schedule: Q04DX004 (ip), vehicle: saline): 101 % of control | T/C (dose: 15.0 mg/kg/injection, schedule: Q04DX004 (ip), vehicle: saline): 99 % of control | T/C [4]: 102 % of control

CNC(=O)c1ccccc1CNC(=S)Nc1cccc(C)c1
T/C [5]: 92 % of control | T/C [6]: 102 % of control | T/C [7]: 99 % of control | T/C [8]: 102 % of control

COC(=O)c1c(C(=O)OC)c2c(C)nn3ccc1n23
T/C [9]: 96 % of control | T/C [10]: 97 % of control | T/C [11]: 96 % of control | T/C [12]: 104 % of control | T/C [13]: 93 % of control

NC(=S)N/N=C/c1ncccc1O
T/C (dose: 50.0 mg/kg/injection, schedule: Q04DX004 (ip), vehicle: suspension in saline): 103 % of control | T/C (dose: 100.0 mg/kg/injection, schedule: Q04DX004 (ip), vehicle: suspension in saline): 101 % of control | T/C (dose: 200.0 mg/kg/injection, schedule: Q04DX004 (ip), vehicle: suspension in saline): 101 % of control | T/C (dose: 400.0 mg/kg/injection, schedule: Q04DX004 (ip), vehicle: suspension in saline): 102 % of control

O=[N+]([O-])c1ccc([I+]c2ccccc2)cc1
T/C (dose: 6.25 mg/kg/injection, schedule: Q04DX004 (ip), vehicle: Klucel (hydroxypropylcellulose) (HPC)): 95 % of control | T/C [14]: 109 % of control | T/C [15]: 99 % of control | T/C [1]: 106 % of control

O=CC(O)C(O)C(O)C(O)CO (stereo not drawn)
T/C (dose: 75.0 mg/kg/injection, schedule: Q04DX004 (ip), vehicle: saline): 93 % of control | T/C (dose: 150.0 mg/kg/injection, schedule: Q04DX004 (ip), vehicle: saline): 96 % of control | T/C (dose: 300.0 mg/kg/injection, schedule: Q04DX004 (ip), vehicle: saline): 96 % of control | T/C (dose: 600.0 mg/kg/injection, schedule: Q04DX004 (ip), vehicle: saline): 98 % of control | T/C (dose: 1200.0 mg/kg/injection, schedule: Q04DX004 (ip), vehicle: saline): 93 % of control

COc1cc2c(cc1OC)[C@@H]1C(=O)c3ccc4c(c3O[C@@H]1CO2)C[C@H](C(C)C)O4
T/C [14]: 104 % of control | T/C [15]: 104 % of control | T/C [1]: 104 % of control

Oc1c(Cl)cc(Cl)cc1C=NCCSc1ccc(Cl)cc1
T/C [1]: 97 % of control and 121 % of control | T/C [2]: 98 % of control and 117 % of control | T/C [3]: 97 % of control and 110 % of control | T/C (dose: 400.0 mg/kg/injection, schedule: Q04DX004 (ip), vehicle: Klucel (hydroxypropylcellulose) (HPC)): 94 % of control and 112 % of control | T/C (dose: 800.0 mg/kg/injection, schedule: Q04DX004 (ip), vehicle: Klucel (hydroxypropylcellulose) (HPC)): 100 % of control

O=C1C2CC3CC1CC(Cl)(C3)C2
T/C [9]: 105 % of control | T/C [10]: 99 % of control | T/C [11]: 94 % of control

O=C1CCC(=O)N1CO
T/C [11]: 93 % of control | T/C [12]: 101 % of control | T/C [13]: 87 % of control | T/C (dose: 400.0 mg/kg/injection, schedule: Q04DX004 (ip), vehicle: saline with Tween-80): 100 % of control | T/C (dose: 800.0 mg/kg/injection, schedule: Q04DX004 (ip), vehicle: saline with Tween-80): 97 % of control

CS(=O)(=O)CS(=O)(=O)OCCF
T/C (dose: 12.5 mg/kg/injection, schedule: Q04DX004 (ip), vehicle: saline): 152 % of control | T/C (dose: 18.0 mg/kg/injection, schedule: Q04DX004 (ip), vehicle: saline): 176 % of control | T/C (dose: 25.0 mg/kg/injection, schedule: Q04DX004 (ip), vehicle: saline): 189 % of control and 240 % of control | T/C [4]: 244 % of control | T/C (dose: 50.0 mg/kg/injection, schedule: Q04DX004 (ip), vehicle: saline): 234 % of control and 262 % of control

COc1ccc(CCN2C(=O)C(=O)N(c3cccc(Cl)c3)C2=O)cc1OC
T/C (dose: 43.75 mg/kg/injection, schedule: Q04DX004 (ip), vehicle: Klucel (hydroxypropylcellulose) (HPC)): 88 % of control | T/C (dose: 87.5 mg/kg/injection, schedule: Q04DX004 (ip), vehicle: Klucel (hydroxypropylcellulose) (HPC)): 91 % of control | T/C (dose: 175.0 mg/kg/injection, schedule: Q04DX004 (ip), vehicle: Klucel (hydroxypropylcellulose) (HPC)): 88 % of control | T/C (dose: 350.0 mg/kg/injection, schedule: Q04DX004 (ip), vehicle: Klucel (hydroxypropylcellulose) (HPC)): 98 % of control | T/C (dose: 700.0 mg/kg/injection, schedule: Q04DX004 (ip), vehicle: Klucel (hydroxypropylcellulose) (HPC)): 92 % of control

COc1cc2c(c(OC)c1OC)-c1ccc(OC)c(=O)cc1[C@@H](N)CC2
T/C (dose: 5.0 mg/kg/injection, schedule: Q04DX004 (ip), vehicle: saline): 119 % of control | T/C (dose: 5.0 mg/kg/injection, schedule: Q04DX004 (ip), vehicle: suspension in saline): 116 % of control | T/C (dose: 8.6 mg/kg/injection, schedule: Q04DX004 (ip), vehicle: suspension in saline): 123 % of control | T/C (dose: 10.0 mg/kg/injection, schedule: Q04DX004 (ip), vehicle: suspension in saline): 118 % of control | T/C (dose: 20.0 mg/kg/injection, schedule: Q04DX004 (ip), vehicle: saline): 152 % of control | T/C (dose: 24.0 mg/kg/injection, schedule: Q04DX004 (ip), vehicle: suspension in saline): 123 % of control | T/C (dose: 40.0 mg/kg/injection, schedule: Q04DX004 (ip), vehicle: saline): 157 % of control

CC(=O)C[n+]1ccccc1Sc1ccc(Cl)cc1
T/C [10]: 98 % of control | T/C [11]: 86 % of control | T/C [12]: 88 % of control

CC1Oc2cc3c(-c4c(O)cc(O)c5c(O)c6c(cc45)OC(C)C(C)C6=O)c(O)cc(O)c3c(O)c2C(=O)C1C (stereo not drawn)
T/C (dose: 0.62 mg/kg/injection, schedule: Q01DX009 (ip), vehicle: suspension in saline): 102 % of control | T/C (dose: 1.25 mg/kg/injection, schedule: Q01DX009 (ip), vehicle: suspension in saline): 109 % of control | T/C (dose: 1.25 mg/kg/injection, schedule: Q04DX004 (ip), vehicle: suspension in saline): 151 % of control | T/C (dose: 1.8 mg/kg/injection, schedule: Q04DX004 (ip), vehicle: suspension in saline): 97 % of control and 115 % of control | T/C (dose: 3.0 mg/kg/injection, schedule: Q04DX004 (ip), vehicle: suspension in saline): 107 % of control and 114 % of control | T/C (dose: 8.33 mg/kg/injection, schedule: Q04DX004 (ip), vehicle: suspension in saline): 123 % of control

O=C1CN2Cc3c(sc4c3CCCC4)N=C2N1
T/C [5]: 103 % of control | T/C [6]: 104 % of control | T/C [7]: 100 % of control | T/C [8]: 103 % of control | T/C (dose: 600.0 mg/kg/injection, schedule: Q04DX004 (ip), vehicle: Klucel (hydroxypropylcellulose) (HPC)): 100 % of control
